These are literature values, as cited in patent US7700579B2, “Process for the preparation of piroxicam: b-cyclodextrin inclusion compounds” (Chiesi Farmaceutici S.p.A., priority 2002, dated 2010).

The structures appear in SMILES notation.

The conditions of the data set: pH 5, 37° C.

On to `CN1C(C(=O)Nc2ccccn2)=C(O)c2ccccc2S1(=O)=O` [Piroxicam], for which the solubility in water is 0.003%.
